Experiments:
Experiment in all cases: relative viability (nuclei count vs DMSO), 5 days (fraction); higher = more cells survive
Zosuquidar + OSI-027 = compound: O[C@@H](COc1cccc2ncccc12)CN1CCN([C@@H]2c3ccccc3[C@@H]3[C@H](c4ccccc42)C3(F)F)CC1 [Zosuquidar] + COc1cccc2cc(-c3nc([C@H]4CC[C@H](C(=O)O)CC4)n4ncnc(N)c34)[nH]c12 [OSI-027] (partner 0.5 µM)
Summary of the method: (§1)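 Cells from lung cancer lines were seeded into 1536-well plates and, one day later, dosed by pin tool. Treatments were either a single drug or a fixed dose of an anchor drug with five library-drug doses (not always all listed) in √10 steps. After 5 days, nuclei were stained in a one-step fixation (final 0.05% Triton X-100, 1% formaldehyde, 1 ug/ml Hoechst) and counted on 4× images, and relative viability is the treated-to-vehicle nuclei ratio, as the median of duplicate plates.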

[1] = compound: COc1cc2nccc(Oc3ccc(NC(=O)C4(C(=O)Nc5ccc(F)cc5)CC4)cc3)c2cc1OC [Cabozantinib] + CC1(C)CCC(c2ccc(Cl)cc2)=C(CN2CCN(c3ccc(C(=O)NS(=O)(=O)c4ccc(N[C@H](CCN5CCOCC5)CSc5ccccc5)c(S(=O)(=O)C(F)(F)F)c4)cc3)CC2)C1 [Navitoclax] (partner 0.5 µM)
Summary of the method: as §1

Kobe2602 + Lapatinib = compound: C1=CC(=CC=C1NC(=S)NNC2=C(C=C(C=C2[N+](=O)[O-])C(F)(F)F)[N+](=O)[O-])F [Kobe2602] + CS(=O)(=O)CCNCc1ccc(-c2ccc3ncnc(Nc4ccc(OCc5cccc(F)c5)c(Cl)c4)c3c2)o1 [Lapatinib] (partner 2 µM)
Summary of the method: as §1

Kobe2602 + Luminespib = compound: C1=CC(=CC=C1NC(=S)NNC2=C(C=C(C=C2[N+](=O)[O-])C(F)(F)F)[N+](=O)[O-])F [Kobe2602] + CCNC(=O)c1noc(-c2cc(C(C)C)c(O)cc2O)c1-c1ccc(CN2CCOCC2)cc1 [Luminespib] (partner 0.01 µM)
Summary of the method: as §1

Cell Line	relative viability (Zosuquidar + OSI-027; first compound 0.01 µM)	relative viability (Zosuquidar + OSI-027; first compound 0.03162 µM)	relative viability (Zosuquidar + OSI-027; first compound 0.1 µM)	relative viability (Zosuquidar + OSI-027; first compound 0.3162 µM)	relative viability (Zosuquidar + OSI-027; first compound 1 µM)	relative viability ([1]; first compound 0.02 µM)	relative viability ([1]; first compound 0.06325 µM)	relative viability ([1]; first compound 0.6325 µM)	relative viability ([1]; first compound 2 µM)	relative viability (Kobe2602 + Lapatinib; first compound 0.2 µM)	relative viability (Kobe2602 + Lapatinib; first compound 0.6325 µM)	relative viability (Kobe2602 + Lapatinib; first compound 2 µM)	relative viability (Kobe2602 + Lapatinib; first compound 6.325 µM)	relative viability (Kobe2602 + Lapatinib; first compound 20 µM)	relative viability (Kobe2602 + Luminespib; first compound 0.2 µM)	relative viability (Kobe2602 + Luminespib; first compound 0.6325 µM)	relative viability (Kobe2602 + Luminespib; first compound 2 µM)	relative viability (Kobe2602 + Luminespib; first compound 6.325 µM)	relative viability (Kobe2602 + Luminespib; first compound 20 µM)	relative viability ([1]; first compound 0.2 µM)
PC-3 [JPC-3]	0.738	0.787	0.562	0.789	0.796	0.829	0.929	0.784	0.868	0.488	0.457	0.434	0.477	0.495	0.746	0.799	0.713	0.748	0.649	
HARA	0.49		0.415	0.564	0.398	1.17	1.16	1.19	1.17	0.677	0.844	0.689	0.697	0.814	0.752	1.05	0.688	0.776	0.69	1.12
NCI-H2347	0.434	0.398	0.238	0.481	0.475	0.83	0.994	0.612	0.375	0.939	0.963	0.913	0.988	0.909	0.454	0.369	0.793		0.756	0.803
LOU-NH91	0.623	0.664		0.781	0.713	0.72	0.845	0.666	0.7	0.706	0.774	0.718	0.801	0.805	0.387	0.338	0.326	0.367	0.331	0.441
LC-2-ad	0.865	0.814	0.829	1.09	0.864	0.454	0.57	0.35	0.325	1.03	0.893	0.764	0.978	0.923	1.01	1.15	0.908	1.12	1.06	0.541
LCLC-97TM1	0.469	0.507	0.366	0.502	0.641		0.5	0.484	0.589	1.05	1.01	0.817	0.965	0.893	0.749	0.718	0.739	0.741	0.819	0.618
EKVX	0.743	0.622	0.536	0.707	0.762	0.899	1.1	1.03	1.07	0.207	0.223	0.221	0.184	0.267	0.9	0.948	0.832	0.871	0.858	0.879
NCI-H441	0.667	0.666	0.519	0.828	0.585		0.508	0.578	0.662						0.328	0.374	0.327	0.358	0.296	0.393
HCC-827	0.828	0.723	0.673	0.828	0.788	1.05	1.07	1.05	0.981	0.189	0.211	0.231	0.177	0.227	0.856	0.793	0.619	0.369	0.831	
NCI-H838	0.411	0.323	0.303	0.38	0.41	1.21	1.19	1.03	1.03	0.905	1.14	0.96	1	0.87	0.353	0.395	0.308	0.268	0.278	1.12
CAL-12T	0.715	0.867	0.478	0.951	0.562	1.51	1.2	1.17	1.46	0.676	0.717	0.681	0.627	0.696	0.358	1.01	0.241	0.362	0.233	1.37
NCI-H2342	0.605	0.597	0.558	0.668	0.624										0.826	0.735	0.741	0.692	0.773	
SW 900	0.676	0.507	0.493	0.646	0.706										0.164	0.185	0.191	0.166	0.199	
IA-LM						1.1	0.912	1.01	0.965	0.584	0.614	0.732	0.805	0.811						1.02
EPLC-272H	0.275	0.335	0.273	0.31	0.275	1.11	1.11	1.02	1.12	1.05	0.956	0.916	0.853	1.01	0.259	0.83	0.327	0.363	0.27	0.927
A-427	0.409	0.511	0.4	0.507	0.501	0.988	1.03	0.978	0.978	0.995	1.02	1.01	1.03	0.953	0.943	0.872	0.85	0.893	0.911	0.998
NCI-H727	0.622	0.538	0.343	0.783	0.705	0.355	0.408	0.441	0.507	0.885	0.783	0.879	0.996	0.986	0.581	0.516	0.4	0.407	0.414	0.463
NCI-H1993	0.632	0.677	0.488	0.497	0.525	0.934	0.901	0.851	0.991	0.718	0.727	0.783	0.814	0.875	0.673	0.794	0.605	0.658	0.769	0.857
LK-2	0.172	0.216	0.21	0.209	0.174	0.642	1	0.886	0.794	1.02	0.857	0.961	0.83	1.09	0.189	0.204	0.182	0.154	0.195	0.842
SW 1573	0.624	0.609	0.81	1	0.689	1.04	1.17	1	0.81	1.34	1.25	1.05	1.1	1.14	0.202	0.212	0.21	0.458	0.0872	0.887

Cell Line	relative viability (Zosuquidar + OSI-027; first compound 0.01 µM)	relative viability (Zosuquidar + OSI-027; first compound 0.03162 µM)	relative viability (Zosuquidar + OSI-027; first compound 0.1 µM)	relative viability (Zosuquidar + OSI-027; first compound 0.3162 µM)	relative viability (Zosuquidar + OSI-027; first compound 1 µM)	relative viability ([1]; first compound 0.02 µM)	relative viability ([1]; first compound 0.06325 µM)	relative viability ([1]; first compound 0.6325 µM)	relative viability ([1]; first compound 2 µM)	relative viability (Kobe2602 + Lapatinib; first compound 0.2 µM)	relative viability (Kobe2602 + Lapatinib; first compound 0.6325 µM)	relative viability (Kobe2602 + Lapatinib; first compound 2 µM)	relative viability (Kobe2602 + Lapatinib; first compound 6.325 µM)	relative viability (Kobe2602 + Lapatinib; first compound 20 µM)	relative viability (Kobe2602 + Luminespib; first compound 0.2 µM)	relative viability (Kobe2602 + Luminespib; first compound 0.6325 µM)	relative viability (Kobe2602 + Luminespib; first compound 2 µM)	relative viability (Kobe2602 + Luminespib; first compound 6.325 µM)	relative viability (Kobe2602 + Luminespib; first compound 20 µM)	relative viability ([1]; first compound 0.2 µM)
NCI-H1915	0.642	0.624	0.529	0.637	0.599	0.778	0.823	0.732	0.769	0.998	1.04	0.969	1.02	1.03	0.778	0.875	0.783	0.852	0.693	0.801
NCI-H661	0.654	0.67	0.596	0.714	0.695					0.627	0.601	0.537	0.434	0.567	0.945	0.904	0.948	0.946	0.9	
NCI-H520	0.266	0.294		0.237	0.236	0.902	1.16	1.02	0.998	0.853	0.908	0.645	0.729	0.824	0.256	0.193	0.224	0.206	0.215	1.21
COR-L 105	0.595	0.679	0.519	0.79	0.613	0.789	0.771	0.657	0.743	0.369	0.381	0.379	0.38	0.401	0.591	0.896	0.848	0.643	0.719	
NCI-H1563	0.751	0.663	0.753	0.762	0.827					0.912	1.37	1.03	1.04	1.02	0.579	0.492	0.52	0.543	0.512	
NCI-H1703						0.618	0.48	0.258	0.206	0.903	0.975	0.925	0.982	0.694						0.265
NCI-H358	0.779	0.769	0.618	0.736	0.734					0.448	0.485	0.451	0.451	0.452	0.364	0.324	0.237	0.477	0.349	
EBC-1						0.444	0.302	0.125	0.0913	0.211	0.201	0.204	0.227	0.208						0.152
ABC-1	0.479	0.426	0.607	0.54	0.509					1.5	1.24	1.11	1.22	1.27	0.785	0.851		0.494	0.887	
NCI-H650	0.514	0.477	0.433	0.553	0.576					0.852	1.07	1.19	1.04	0.99	0.754	0.897	0.796	0.748	0.717	
HCC-366	0.911	1.09	0.845	1.19	0.956	1.15	1.11	1.03	1.06	1.05	1.16	0.963	0.979	0.968						1.16
NCI-H1648	0.243		0.234	0.288	0.245															
A549						1.26	1.24	1.27	1.08	0.922	0.978	0.88	1.05	0.881						1.21
NCI-H1299						1.03	1.04	1.06	1.09	0.997	0.991	0.949	1.01	0.935						1.08
NCI-H1623	0.432	0.464	0.421	0.441	0.43										0.578	0.427	0.571	0.368	0.491	
HCC-78	0.346	0.356		0.422	0.294	0.71	0.682	0.224	0.186	1.02	0.903		0.418	1.18						0.307
NCI-H522	0.714	0.58	0.756	0.898	0.857										1.08	1.25	1.31	1.09	1.03	
Calu-6						0.76	0.912	0.739	0.773	1.08	1.14	1.1	1.04	0.995						0.801
ChaGo-K-1	0.595	0.479	0.644	0.553	0.522	0.823	1.28	0.562	1.04						0.684	0.53	0.743	0.617	0.507	0.972
LCLC-103H	0.474	0.469	0.402	0.478	0.528										0.908	1.03	0.935	0.913	0.765	

From the supplement of paper PMC10307832
